Assay results from patent US20230233569A1 (Revolution Medicines, Inc., priority 2020, published 2023).
Where two headings read alike, the source gives them in different places.

Experiments:
[1] = target: KRAS G12S (Homo sapiens, UniProt P01116+P62937, G12S); assay: Disruption of BRAF RBD interaction with Ras (FRET / MOA assay, with Cyclophilin A); assay type: biochemical
In short: (§1)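 IC50 values reflect loss of K-Ras binding to BRAF RBD, read as a lowered TR-FRET ratio compared with DMSO, driven by compound-mediated K-Ras:Cyclophilin A complex formation. Compound top dose 30 μM final, 3-fold steps, 3 h incubation at 25 °C before a 1.5 h antibody step.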

[2] = target: KRAS WT (Homo sapiens, UniProt P01116+P62937); assay: as above; assay type: biochemical
In short: as §1

[3] = target: NRAS G12C (Homo sapiens, UniProt P01111+P62937, G12C); assay: as above; assay type: biochemical
[4] = target: KRAS G13C (Homo sapiens, UniProt P01116+P62937, G13C); assay: as above; assay type: biochemical
In short: as §1

[5] = target: KRAS G12C (Homo sapiens, UniProt P01116+P62937, G12C); assay: as above; assay type: biochemical
In short: as §1

[6] = target: KRAS G12V (Homo sapiens, UniProt P01116+P62937, G12V); assay: as above; assay type: biochemical
In short: as §1

[7] = target: KRAS G12D (Homo sapiens, UniProt P01116+P62937, G12D); assay: as above; assay type: biochemical
In short: as §1

[8] = target: KRAS G13D (Homo sapiens, UniProt P01116+P62937, G13D); assay: as above; assay type: biochemical
In short: as §1

[9] = target: NRAS Q61R (Homo sapiens, UniProt P01111+P62937, Q61R); assay: as above; assay type: biochemical; details: NRAS Q61R; read-out: NRAS Q61R FRET data IC50
In short: (§2)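 TR-FRET in 25 mM HEPES pH 7.3, 100 mM NaCl, 5 mM MgCl2, 0.1% BSA: 25 μM Cyclophilin A, 12.5 nM His6-Ras-GMPPNP, 50 nM GST-BRAF RBD with compound (10-point 3-fold series from 30 μM), 3 h at 25° C. Anti-His Eu/anti-GST APC added, 1.5 h more; IC50 from decreased FRET ratio versus DMSO.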

[10] = target: NRAS WT (Homo sapiens, UniProt P01111+P62937); assay: as above; assay type: biochemical; details: NRAS WT; read-out: NRAS WT FRET data IC50
In short: as §2

[11] = target: NRAS Q61K (Homo sapiens, UniProt P01111+P62937, Q61K); assay: as above; assay type: biochemical; details: NRAS Q61K; read-out: NRAS Q61K FRET data IC50
In short: as §2

[12] = target: KRAS Q61H (Homo sapiens, UniProt P01116+P62937, Q61H); assay: as above; assay type: biochemical; details: KRAS Q61H; read-out: KRAS Q61H FRET data IC50
In short: as §2

[13] = tested on: Capan-1 (K-Ras G12V); assay: CellTiter-Glo cell viability assay, 5-day treatment; assay type: cell-based; details: Homo sapiens, CAPAN-1, 120 h, 5-day treatment; read-out: Capan-1 Cell Viability assay data (K-Ras G12V, IC50)
In short: (§3)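 Compounds were dispensed directly onto seeded cells and incubated for 5 days, then plates were equilibrated to room temperature for about 30 minutes before luminescence reading. Signals were expressed as percent of the mean DMSO control and fitted with a four-parameter logistic curve.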

[14] = tested on: NCI-H358 (K-Ras G12C); assay: as above; assay type: cell-based; details: Homo sapiens, NCI-H358, 120 h, 5-day treatment; read-out: H358 Cell Viability assay data (K-Ras G12C, IC50)
In short: as §3

[15] = read-out: KRAS G12S FRET data, IC50
[16] = KRAS WT, read-out: KRAS WT FRET data IC50
[17] = NRAS G12C, read-out: NRAS G12C FRET data IC50
[18] = read-out: KRAS G13C FRET data, IC50
[19] = read-out: KRAS G12C FRET data, IC50
[20] = KRAS G12V, read-out: KRAS G12V FRET data IC50
[21] = read-out: KRAS G12D FRET data, IC50
[22] = KRAS G13D, read-out: KRAS G13D FRET data IC50

Chain of KRAS G13C (P01116 1-169 isoform P01116-2 G13C): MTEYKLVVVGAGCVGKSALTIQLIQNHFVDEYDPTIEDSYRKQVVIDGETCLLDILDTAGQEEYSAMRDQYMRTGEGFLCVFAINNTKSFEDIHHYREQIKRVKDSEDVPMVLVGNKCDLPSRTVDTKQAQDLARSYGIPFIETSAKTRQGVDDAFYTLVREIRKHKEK
Chain of KRAS G13C (P62937 whole entry): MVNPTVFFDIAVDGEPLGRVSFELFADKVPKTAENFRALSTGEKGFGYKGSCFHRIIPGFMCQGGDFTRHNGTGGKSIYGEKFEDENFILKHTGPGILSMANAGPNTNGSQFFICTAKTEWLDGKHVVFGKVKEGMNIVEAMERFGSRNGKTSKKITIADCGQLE
Chain of KRAS WT (P01116 1-169 isoform P01116-2 limits assumed): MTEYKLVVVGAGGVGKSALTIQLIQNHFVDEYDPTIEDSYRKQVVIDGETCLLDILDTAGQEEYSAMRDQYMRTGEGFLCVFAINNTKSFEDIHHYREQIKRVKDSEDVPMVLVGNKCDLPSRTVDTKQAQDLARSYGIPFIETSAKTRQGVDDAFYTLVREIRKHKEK
Chain of KRAS WT (P62937 whole entry): as the sequence (P62937 whole entry) above
Chain of KRAS Q61H (P01116 1-169 isoform P01116-2 Q61H limits assumed): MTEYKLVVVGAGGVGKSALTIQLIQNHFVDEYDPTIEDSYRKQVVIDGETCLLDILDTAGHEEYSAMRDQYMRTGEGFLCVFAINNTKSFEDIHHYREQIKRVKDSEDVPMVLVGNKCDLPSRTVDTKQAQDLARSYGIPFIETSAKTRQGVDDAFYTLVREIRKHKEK
Chain of KRAS Q61H (P62937 whole entry): as the sequence (P62937 whole entry) above
Chain of KRAS G12C (P01116 1-169 isoform P01116-2 G12C): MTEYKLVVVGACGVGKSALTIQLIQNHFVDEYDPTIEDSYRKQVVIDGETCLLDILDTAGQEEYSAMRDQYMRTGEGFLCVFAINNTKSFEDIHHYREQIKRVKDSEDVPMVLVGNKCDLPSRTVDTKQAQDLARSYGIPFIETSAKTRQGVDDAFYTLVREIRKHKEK
Chain of KRAS G12C (P62937 whole entry): as the sequence (P62937 whole entry) above
Chain of NRAS WT (P01111 whole entry): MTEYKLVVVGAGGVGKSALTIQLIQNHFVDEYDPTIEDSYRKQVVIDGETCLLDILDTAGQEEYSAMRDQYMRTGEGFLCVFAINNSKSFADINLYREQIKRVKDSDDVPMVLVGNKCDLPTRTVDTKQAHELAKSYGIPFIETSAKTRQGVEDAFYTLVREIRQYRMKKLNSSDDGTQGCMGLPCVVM
Chain of NRAS WT (P62937 whole entry): as the sequence (P62937 whole entry) above
Chain of KRAS G12V (P01116 1-169 isoform P01116-2 G12V limits assumed): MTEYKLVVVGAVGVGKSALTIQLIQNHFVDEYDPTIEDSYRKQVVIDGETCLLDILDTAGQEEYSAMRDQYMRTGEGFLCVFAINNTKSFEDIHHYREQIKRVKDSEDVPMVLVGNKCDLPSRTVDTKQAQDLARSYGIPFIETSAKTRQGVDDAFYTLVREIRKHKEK
Chain of KRAS G12V (P62937 whole entry): as the sequence (P62937 whole entry) above
Chain of NRAS Q61R (P01111 whole entry Q61R): as the sequence (P01111 whole entry) above, with Q61R counted along it
Chain of NRAS Q61R (P62937 whole entry): as the sequence (P62937 whole entry) above
Chain of KRAS G12S (P01116 1-169 isoform P01116-2 G12S limits assumed): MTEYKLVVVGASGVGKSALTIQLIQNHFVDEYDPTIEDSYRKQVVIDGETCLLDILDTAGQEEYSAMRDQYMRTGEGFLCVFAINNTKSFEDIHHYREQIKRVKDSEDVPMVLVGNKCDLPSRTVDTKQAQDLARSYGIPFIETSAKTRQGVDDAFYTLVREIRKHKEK
Chain of KRAS G12S (P62937 whole entry): as the sequence (P62937 whole entry) above
Chain of KRAS G13D (P01116 1-169 isoform P01116-2 G13D limits assumed): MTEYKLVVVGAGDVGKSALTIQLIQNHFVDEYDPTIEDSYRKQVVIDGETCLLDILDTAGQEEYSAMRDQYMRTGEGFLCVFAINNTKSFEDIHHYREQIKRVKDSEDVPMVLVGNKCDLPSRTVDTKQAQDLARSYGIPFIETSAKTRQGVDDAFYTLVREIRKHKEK
Chain of KRAS G13D (P62937 whole entry): as the sequence (P62937 whole entry) above
Chain of NRAS G12C (P01111 whole entry G12C): as the sequence (P01111 whole entry) above, with G12C counted along it
Chain of NRAS G12C (P62937 whole entry): as the sequence (P62937 whole entry) above
Chain of NRAS Q61K (P01111 whole entry Q61K): as the sequence (P01111 whole entry) above, with Q61K counted along it
Chain of NRAS Q61K (P62937 whole entry): as the sequence (P62937 whole entry) above
Chain of KRAS G12D (P01116 1-169 isoform P01116-2 G12D limits assumed): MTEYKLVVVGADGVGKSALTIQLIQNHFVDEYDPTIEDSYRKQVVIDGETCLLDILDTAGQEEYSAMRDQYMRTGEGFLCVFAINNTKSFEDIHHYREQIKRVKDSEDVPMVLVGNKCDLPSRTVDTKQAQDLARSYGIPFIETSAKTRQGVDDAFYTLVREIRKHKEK
Chain of KRAS G12D (P62937 whole entry): as the sequence (P62937 whole entry) above

SMILES | IC50 [9] [nM] | IC50 [10] [nM] | IC50 [11] [nM] | IC50 [12] [nM] | IC50 [13] [nM] | IC50 [14] [nM] | IC50 [1, 15] [nM] | IC50 [2, 16] [nM] | IC50 [3, 17] [nM] | IC50 [4, 18] [nM] | IC50 [5, 19] [nM] | IC50 [6, 20] [nM] | IC50 [7, 21] [nM] | IC50 [8, 22] [nM] | also measured
CCn1c(-c2cccnc2[C@H](C)OC)c2c3cc(ccc31)-c1csc(n1)C[C@H](NC(=O)N1CCC[C@@H]1COC)C(=O)N1CCC[C@H](N1)C(=O)OCC(C)(C)C2 (atropisomer, axis not shown) [Example A266] | 100 to 1000 | 100 to 1000 | 10 to 100 | 10 to 100 | 100 to 1000 | 100 to 1000 | – | – | – | – | – | – | – | – | IC50 ([1]; KRAS G12S FRET data, IC50): 100 to 1000 nM; IC50 ([2]; KRAS WT FRET data IC50, KRAS WT): 100 to 1000 nM; IC50 ([3]; NRAS G12C FRET data IC50, NRAS G12C): 10 to 100 nM; IC50 ([4]; KRAS G13C FRET data, IC50): 10 to 100 nM; IC50 ([5]; KRAS G12C FRET data, IC50): 10 to 100 nM; IC50 ([6]; KRAS G12V FRET data IC50, KRAS G12V): 10 to 100 nM; IC50 ([7]; KRAS G12D FRET data, IC50): 100 to 1000 nM; IC50 ([8]; KRAS G13D FRET data IC50, KRAS G13D): 100 to 1000 nM
CCn1c(-c2cc(N3CCN(C)CC3)cnc2[C@H](C)OC)c2c3cc(ccc31)-c1csc(n1)C[C@H](NC(=O)[C@H](C(C)C)N(C)C(=O)N(C)C)C(=O)N1CCC[C@H](N1)C(=O)OCC(C)(C)C2 (atropisomer, axis not shown) [Example A277, (2S)—N-((6^3S,4S,Z)-1^1-ethyl-1^2-(2-((S)-1-methoxyethyl)-5-(4-methylpiperazin-1-yl)pyridin-3-yl)-10,10-dimethyl-5,7-dioxo-6^1,6^2,6^3,6^4,6^5,6^6-hexahydro-1^1H-8-oxa-2(4,2)-thiazola-1(5,3)-indola-6(1,3)-pyridazinacycloundecaphane-4-yl)-3-methyl-2-(1,3,3-trimethylureido)butanamide] | 10 to 100 | 10 to 100 | 10 to 100 | 10 to 100 | < 10 | < 10 | 10 to 100 | 10 to 100 | 10 to 100 | 10 to 100 | 10 to 100 | 10 to 100 | 100 to 1000 | 10 to 100 | –
CCn1c(-c2cccnc2[C@H](C)OC)c2c3cc(ccc31)-c1csc(n1)C[C@H](NC(=O)[C@H](C(C)C)N(C)C(=O)N1CC([C@H](C)OC)C1)C(=O)N1CCC[C@H](N1)C(=O)OCC(C)(C)C2 (atropisomer, axis not shown) [Example A279] | 10 to 100 | 10 to 100 | 10 to 100 | 10 to 100 | 10 to 100 | 10 to 100 | 100 to 1000 | 100 to 1000 | 10 to 100 | 100 to 1000 | 10 to 100 | 10 to 100 | 100 to 1000 | 100 to 1000 | –
CCn1c(-c2cccnc2[C@H](C)OC)c2c3cc(ccc31)-c1csc(n1)C[C@H](NC(=O)[C@H](C(C)C)N(C)C(=O)N1CC3(CC(N(C)C)C3)C1)C(=O)N1CCC[C@H](N1)C(=O)OCC(C)(C)C2 (atropisomer, axis not shown) [Example A280] | 100 to 1000 | 100 to 1000 | 10 to 100 | 10 to 100 | 10 to 100 | 10 to 100 | 100 to 1000 | 100 to 1000 | 10 to 100 | 100 to 1000 | 10 to 100 | 100 to 1000 | 100 to 1000 | 100 to 1000 | –
CCn1c(-c2cccnc2[C@H](C)OC)c2c3cc(ccc31)-c1csc(n1)C[C@H](NC(=O)[C@H](C(C)C)N(C)C(=O)N1CC(N(C)C3CC3)C1)C(=O)N1CCC[C@H](N1)C(=O)OCC(C)(C)C2 (atropisomer, axis not shown) [Example A285] | 100 to 1000 | 100 to 1000 | 10 to 100 | 10 to 100 | 10 to 100 | 10 to 100 | 100 to 1000 | 100 to 1000 | 10 to 100 | 100 to 1000 | 10 to 100 | 100 to 1000 | 100 to 1000 | 100 to 1000 | –
CCn1c(-c2cccnc2[C@H](C)OC)c2c3cc(ccc31)-c1csc(n1)C[C@H](NC(=O)[C@H](C(C)C)N(C)C(=O)N1CCN(C(=O)CN(C)C)CC1)C(=O)N1CCC[C@H](N1)C(=O)OCC(C)(C)C2 (atropisomer, axis not shown) [Example A290] | 100 to 1000 | 10 to 100 | 10 to 100 | 10 to 100 | 10 to 100 | 10 to 100 | 100 to 1000 | 10 to 100 | 10 to 100 | 100 to 1000 | 10 to 100 | 100 to 1000 | 100 to 1000 | 100 to 1000 | –
CCn1c(-c2cccnc2[C@H](C)OC)c2c3cc(ccc31)-c1csc(n1)C[C@H](NC(=O)[C@H](C(C)C)N(C)C(=O)N1CC(OC(F)F)C1)C(=O)N1CCC[C@H](N1)C(=O)OCC(C)(C)C2 (atropisomer, axis not shown) [Example A302] | 100 to 1000 | 100 to 1000 | 10 to 100 | 10 to 100 | 10 to 100 | < 10 | 100 to 1000 | 100 to 1000 | 10 to 100 | 100 to 1000 | 10 to 100 | 100 to 1000 | 100 to 1000 | 100 to 1000 | –
CCn1c(-c2cccnc2[C@H](C)OC)c2c3cc(ccc31)-c1csc(n1)C[C@H](NC(=O)[C@H](C(C)C)N(C)C(=O)N1CCN(C(=O)CO)CC1)C(=O)N1CCC[C@H](N1)C(=O)OCC(C)(C)C2 (atropisomer, axis not shown) [Example A306] | 10 to 100 | 10 to 100 | 10 to 100 | 10 to 100 | 10 to 100 | < 10 | 100 to 1000 | 10 to 100 | 10 to 100 | 100 to 1000 | 10 to 100 | 100 to 1000 | 100 to 1000 | 100 to 1000 | –
CCn1c(-c2cccnc2[C@H](C)OC)c2c3cc(ccc31)-c1csc(n1)C[C@H](NC(=O)[C@H](C(C)C)N(C)C(=O)N1CCO[C@@H](C)C1)C(=O)N1CCC[C@H](N1)C(=O)OCC(C)(C)C2 (atropisomer, axis not shown) [Example A309] | 10 to 100 | 10 to 100 | 10 to 100 | 10 to 100 | 10 to 100 | < 10 | 100 to 1000 | 100 to 1000 | 10 to 100 | 100 to 1000 | 10 to 100 | 100 to 1000 | 100 to 1000 | 100 to 1000 | –
CCn1c(-c2cccnc2[C@H](C)OC)c2c3cc(ccc31)-c1csc(n1)C[C@H](NC(=O)[C@H]1CCCO1)C(=O)N1CCC[C@H](N1)C(=O)OCC(C)(C)C2 (atropisomer, axis not shown) [Example A315] | 1000 to 10000 | 100 to 1000 | 100 to 1000 | 100 to 1000 | 100 to 1000 | 100 to 1000 | 100 to 1000 | 100 to 1000 | 100 to 1000 | 100 to 1000 | 100 to 1000 | 100 to 1000 | 1000 to 10000 | 100 to 1000 | –
